According to patent US10294229B2, “Heteroaryl substituted aminopyridine compounds” (BRISTOL-MYERS SQUIBB COMPANY, priority 2015, dated 2019):
pIC50: −log10 of the molar value.

What follows are compounds tested against IRAK4 (Homo sapiens (Human), UniProt Q9NWZ3) (assay: IRAK4 Inhibition Assay). Settings: ATP 500 μM; IRAK4 0.6 nM.
Assay type: biochemical
Method: The assays were performed in U-bottom 384-well plates. The final assay volume was 30 μL prepared from 15 μL additions of enzyme and substrates (fluoresceinated peptide and ATP) and test compounds in assay buffer (20 mM HEPES pH 7.2, 10 mM MgCl2, 0.015% Brij 35 and 4 mM DTT). The reaction was initiated by the combination of IRAK4 with substrates and test compounds. The reaction mixture was incubated at room temperature for 60 min. and terminated by adding 45 μL of 35 mM EDTA to each sample. The reaction mixture was analyzed on the Caliper LABCHIP® 3000 (Caliper, Hopkinton, Mass.) by electrophoretic separation of the fluorescent substrate and phosphorylated product. Inhibition data were calculated by comparison to no enzyme control reactions for 100% inhibition and vehicle-only reactions for 0% inhibition. The final concentrations of reagents in the assays are ATP, 500 μM; FL-IPTSPITTTYFFFKKK peptide 1.5 μM; IRAK4, 0.6 nM; and DMSO, 1.6%.

Sequence of IRAK4 (Q9NWZ3 whole entry, species assumed): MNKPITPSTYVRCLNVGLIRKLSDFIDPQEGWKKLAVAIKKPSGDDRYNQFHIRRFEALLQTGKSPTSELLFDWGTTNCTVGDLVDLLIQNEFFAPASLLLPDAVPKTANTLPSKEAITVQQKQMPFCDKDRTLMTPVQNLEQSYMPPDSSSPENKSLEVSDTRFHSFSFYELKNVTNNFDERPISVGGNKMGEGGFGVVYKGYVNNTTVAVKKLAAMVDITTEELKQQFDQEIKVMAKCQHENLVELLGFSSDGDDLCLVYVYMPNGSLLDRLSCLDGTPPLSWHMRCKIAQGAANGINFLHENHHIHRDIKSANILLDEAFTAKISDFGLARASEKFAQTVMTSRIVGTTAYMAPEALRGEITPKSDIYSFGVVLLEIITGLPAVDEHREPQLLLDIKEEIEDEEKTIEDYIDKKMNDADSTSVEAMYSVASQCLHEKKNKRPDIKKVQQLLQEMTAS

| Compound | pIC50 |
| --- | --- |
| COC(=O)c1ccccc1-n1cc(-c2cnc(-n3ncc4cc(C#N)cnc43)cc2NC(C)C)nn1 [Example 175, methyl 2-(4-(6-(5-cyano-1H-pyrazolo[3,4-b]pyridin-1-yl)-4-(isopropylamino)pyridin-3-yl)-1H-1,2,3-triazol-1-yl)benzoate] | 7.46 |
| CC(C)Nc1cc(-n2ncc3cc(C(N)=O)cnc32)ncc1-c1cn([C@@H]2CCNC[C@@H]2O)nn1 [Example 187, 1-(5-(1-((3S,4R)-3-hydroxypiperidin-4-yl)-1H-1,2,3-triazol-4-yl)-4-(isopropylamino)pyridin-2-yl)-1H-pyrazolo[3,4-b]pyridine-5-carboxamide] | 6.52 |
| CC(C)Nc1cc(-n2ncc3cc(C#N)cnc32)ncc1-c1cn(C[C@H](C)O)cn1 [Example 222, (S)-1-(5-(1-(2-hydroxypropyl)-1H-imidazol-4-yl)-4-(isopropylamino)pyridin-2-yl)-1H-pyrazolo[3,4-b]pyridine-5-carbonitrile] | 7.20 |
| CC(C)Nc1cc(-n2ncc3cc(C#N)cnc32)ncc1-c1cn(-c2cccnc2)cn1 [Example 224, 1-(4-(isopropylamino)-5-(1-(pyridin-3-yl)-1H-imidazol-4-yl)pyridin-2-yl)-1H-pyrazolo[3,4-b]pyridine-5-carbonitrile] | 7.06 |
| CC(C)Nc1cc(-n2ncc3cc(C#N)cnc32)ncc1-c1cn(CC(N)=O)cn1 [Example 237, 2-(4-(6-(5-cyano-1H-pyrazolo[3,4-b]pyridin-1-yl)-4-(isopropylamino)pyridin-3-yl)-1H-imidazol-1-yl) acetamide] | 7.43 |
| CNC(=O)Cn1cnc(-c2cnc(-n3ncc4cc(C#N)cnc43)cc2NC(C)C)c1 [Example 238, 2-(4-(6-(5-cyano-1H-pyrazolo[3,4-b]pyridin-1-yl)-4-(isopropylamino)pyridin-3-yl)-1H-imidazol-1-yl)-N-methylacetamide] | 7.44 |
| CC(C)Nc1cc(-n2ncc3cc(C#N)cnc32)ncc1-c1cn(Cc2ccccn2)cn1 [Example 239, 1-(4-(isopropylamino)-5-(1-(pyridin-2-ylmethyl)-1H-imidazol-4-yl)pyridin-2-yl)-1H-pyrazolo[3,4-b]pyridine-5-carbonitrile] | 7.47 |
| CC(C)Nc1cc(-n2ncc3cc(C#N)cnc32)ncc1-c1cn(CCCc2ccccc2)cn1 [Example 241, 1-(4-(isopropylamino)-5-(1-(3-phenylpropyl)-1H-imidazol-4-yl)pyridin-2-yl)-1H-pyrazolo [3,4-b]pyridine-5-carbonitrile] | 7.46 |
| CC(C)Nc1cc(-n2ncc3cc(C#N)cnc32)ncc1-n1cc(CCO)cn1 [Example 242, 1-(5-(4-(2-hydroxyethyl)-1H-pyrazol-1-yl)-4-(isopropylamino)pyridin-2-yl)-1H-pyrazolo[3,4-b]pyridine-5-carbonitrile] | 7.33 |
| CC(C)Nc1cc(-n2ncc3cc(C#N)cnc32)ncc1-n1cc(Cc2ccccc2)cn1 [Example 243, 1-(5-(4-benzyl-1H-pyrazol-1-yl)-4-(isopropylamino)pyridin-2-yl)-1H-pyrazolo[3,4-b]pyridine-5-carbonitrile] | 7.21 |
| CC(C)Nc1cc(-n2ncc3cc(C#N)cnc32)ncc1-n1cc(C(C)C)cn1 [Example 244, 1-(5-(4-isopropyl-1H-pyrazol-1-yl)-4-(isopropylamino)pyridin-2-yl)-1H-pyrazolo[3,4-b]pyridine-5-carbonitrile] | 7.21 |
| CC(C)Nc1cc(-n2ncc3cc(C#N)cnc32)ncc1-n1cc(-c2ccccn2)cn1 [Example 245, 1-(4-(isopropylamino)-5-(4-(pyridin-2-yl)-1H-pyrazol-1-yl)pyridin-2-yl)-1H-pyrazolo[3,4-b]pyridine-5-carbonitrile] | 6.48 |
| Cc1ccn(-c2cnc(-n3ncc4cc(C#N)cnc43)cc2NC(C)C)n1 [Example 246, 1-(4-(isopropylamino)-5-(3-methyl-1H-pyrazol-1-yl)pyridin-2-yl)-1H-pyrazolo[3,4-b] pyridine-5-carbonitrile] | 6.47 |
| CC(C)Nc1cc(-n2ncc3cc(C#N)cnc32)ncc1-n1ccc(C(F)(F)F)n1 [Example 247, 1-(4-(isopropylamino)-5-(3-(trifluoromethyl)-1H-pyrazol-1-yl)pyridin-2-yl)-1H-pyrazolo[3,4-b]pyridine-5-carbonitrile] | 6.69 |
| CC(C)Nc1cc(-n2ncc3cc(C#N)cnc32)ncc1-n1ccc(C#N)n1 [Example 248, 1-(5-(3-cyano-1H-pyrazol-1-yl)-4-(isopropylamino)pyridin-2-yl)-1H-pyrazolo[3,4-b]pyridine-5-carbonitrile] | 7.18 |
| CC(C)Nc1cc(-n2ncc3cc(C#N)cnc32)ncc1-n1ccc(-c2cccnc2)n1 [Example 249, 1-(4-(isopropylamino)-5-(3-(pyridin-3-yl)-1H-pyrazol-1-yl)pyridin-2-yl)-1H-pyrazolo[3,4-b]pyridine-5-carbonitrile] | 7.33 |
| CC(C)Nc1cc(-n2ncc3cc(C#N)cnc32)ncc1-n1ccc(CC#N)n1 [Example 250, 1-(5-(3-(cyanomethyl)-1H-pyrazol-1-yl)-4-(isopropylamino)pyridin-2-yl)-1H-pyrazolo[3,4-b]pyridine-5-carbonitrile] | 6.71 |
| CC(C)Nc1cc(-n2ncc3cc(C#N)cnc32)ncc1-n1cc(CCCN)cn1 [Example 251, 1-(5-(4-(3-aminopropyl)-1H-pyrazol-1-yl)-4-(isopropylamino)pyridin-2-yl)-1H-pyrazolo[3,4-b]pyridine-5-carbonitrile] | 7.41 |
| CC(C)Nc1cc(-n2ncc3cc(C#N)cnc32)ncc1-c1cnn(CCO)c1 [Example 252, 1-(5-(1-(2-hydroxyethyl)-1H-pyrazol-4-yl)-4-(isopropylamino)pyridin-2-yl)-1H-pyrazolo[3,4-b]pyridine-5-carbonitrile] | 6.92 |
| CCn1cc(-c2cnc(-n3ncc4cc(C#N)cnc43)cc2NC(C)C)cn1 [Example 253, 1-(5-(1-ethyl-1H-pyrazol-4-yl)-4-(isopropylamino)pyridin-2-yl)-1H-pyrazolo[3,4-b]pyridine-5-carbonitrile] | 7.19 |

Stronger by pIC50, values ahead:

| pIC50 | Compound |
| --- | --- |
| 7.52 | CC(C)Nc1cc(-n2ncc3cc(C#N)cnc32)ncc1-c1cn(Cc2cccnc2)cn1 [Example 235, 1-(4-(isopropylamino)-5-(1-(pyridin-3-ylmethyl)-1H-imidazol-4-yl)pyridin-2-yl)-1H-pyrazolo[3,4-b]pyridine-5-carbonitrile] |
| 7.54 | CCn1cnc(-c2cnc(-n3ncc4cc(C#N)cnc43)cc2NC(C)C)c1 [Example 227, 1-(5-(1-ethyl-1H-imidazol-4-yl)-4-(isopropylamino)pyridin-2-yl)-1H-pyrazolo[3,4-b]pyridine-5-carbonitrile] |
| 7.57 | CCOC(=O)N1CC[C@@H](n2cc(-c3cnc(-n4ncc5cc(C#N)cnc54)cc3NC(C)C)nn2)[C@@H](O)C1 [Example 189, (3S,4R)-ethyl 4-(4-(6-(5-cyano-1H-pyrazolo[3,4-b]pyridin-1-yl)-4-(isopropylamino)pyridin-3-yl)-1H-1,2,3-triazol-1-yl)-3-hydroxypiperidine-1-carboxylate] |
| 7.57 | CC(C)Nc1cc(-n2ncc3cc(C#N)cnc32)ncc1-c1cn(Cc2ccccc2)cn1 [Example 230, 1-(5-(1-benzyl-1H-imidazol-4-yl)-4-(isopropylamino)pyridin-2-yl)-1H-pyrazolo[3,4-b]pyridine-5-carbonitrile] |
| 7.66 | CC(=O)N1CC(n2cnc(-c3cnc(-n4ncc5cc(C#N)cnc54)cc3NC(C)C)c2)C1 [Example 223, 1-(5-(1-(1-acetylazetidin-3-yl)-1H-imidazol-4-yl)-4-(isopropylamino)pyridin-2-yl)-1H-pyrazolo[3,4-b]pyridine-5-carbonitrile] |
| 7.68 | CC(C)Nc1cc(-n2ncc3cc(C#N)cnc32)ncc1-c1cn(CC(=O)N2CCOCC2)cn1 [Example 231, 1-(4-(isopropylamino)-5-(1-(2-morpholino-2-oxoethyl)-1H-imidazol-4-yl)pyridin-2-yl)-1H-pyrazolo[3,4-b]pyridine-5-carbonitrile] |
| 7.70 | CC(C)Nc1cc(-n2ncc3cc(C#N)cnc32)ncc1-c1cn([C@H]2CCN(C(=O)c3cccnc3)C[C@H]2O)nn1 [Example 184, 1-(5-(1-((3R,4S)-3-hydroxy-1-nicotinoylpiperidin-4-yl)-1H-1,2,3-triazol-4-yl)-4-(isopropylamino)pyridin-2-yl)-1H-pyrazolo[3,4-b]pyridine-5-carbonitrile] |
| 7.72 | CC(C)Nc1cc(-n2ncc3cc(C#N)cnc32)ncc1-c1cn(C[C@H](C)CO)cn1 [Example 228, (S)-1-(5-(1-(3-hydroxy-2-methylpropyl)-1H-imidazol-4-yl)-4-(isopropylamino)pyridin-2-yl)-1H-pyrazolo[3,4-b]pyridine-5-carbonitrile] |
| 7.77 | CC(C)Nc1cc(-n2ncc3cc(C#N)cnc32)ncc1-c1cn(-c2cccnc2)nn1 [Example 174, 1-(4-(isopropylamino)-5-(1-(pyridin-3-yl)-1H-1,2,3-triazol-4-yl)pyridin-2-yl)-1H-pyrazolo[3,4-b]pyridine-5-carbonitrile] |
| 8.22 | CC(C)CCn1cc(-c2cnc(-n3ncc4cc(Cl)cnc43)cc2NC(C)C)nn1 [Example 217, 2-(5-chloro-1H-pyrazolo [3,4-b]pyridin-1-yl)-5-(1-isopentyl-1H-1,2,3-triazol-4-yl)-N-isopropylpyridin-4-amine] |
| 8.40 | CC(C)Nc1cc(-n2ncc3cc(C#N)cnc32)ncc1-c1cn(CC(=O)N2CCN(S(C)(=O)=O)CC2)nn1 [Example 193, 1-(4-(isopropylamino)-5-(1-(2-(4-(methylsulfonyl)piperazin-1-yl)-2-oxoethyl)-1H-1,2,3-triazol-4-yl)pyridin-2-yl)-1H-pyrazolo[3,4-b]pyridine-5-carbonitrile] |
